# Residues, ends and D or L forms follow the SMILES beside them. *: point of attachment. Boc = CC(C)(C)OC(=O)*
# Columns and labels:
# Format in all cases: biochemical
# [1] = molecular target: bovine and human pancreatic trypsin; assay: Potency: determination of inhibitor constant Ki against trypsin (S-2222 substrate, Dixon plot); conditions: 37° C., TBS pH 7.4, 15 min preincubation, read-out: Ki For Peptide Aldehydes Against Trypsin
# Method: The potency and specificity of the compounds of the present invention are determined by in vitro assay methods well known in the art. […] Specifically, the inhibitor constant, Ki, of the compounds can be determined by the method of Dixon, Biochem. J. 55:170 (1953). The specificity is assessed by determination of the concentration, IC50, of compound required to give 50% inhibition of the enzymatic activity of the coagulation enzymes, kallikrein, factor XIa, factor VIIa, factor Xa, thrombin; the fibrinolysis enzymes, plasmin, tissue plasminogen activator (tPA), and urokinase (UK), and the anticoagulation enzyme, protein C. Specificity is found when the concentration of compound giving 50% inhibition of trypsin is low relative to the concentration required to give like inhibition of the other enzymes.
# Enzyme activity was determined using as substrate S-2222 [N-benzoyl-L-isoleucyl-L-glutamyl-glycyl-L-arginine-p-nitroanilide hydrochloride where glutamyl side chain is 50% carboxylic acid and 50% methyl ester], purchased from Kabi Diagnostica. The substrate was made up in deionized water prior to use.
# A 96-well microtiter plate was prepared for use in the assay by incubating each well with 300 μL of 1% bovine serum albumin (in deionized water) for 30 minutes at 37° C., and washing three times with deionized water.
# To each well was added 50 μL TBS (0.1M Tris, 0.14M NaCl, pH 7.4), 50 μL 2.5 nM trypsin and 50 μL peptide aldehyde in TBS or TBS alone. After incubating for 15 minutes at 37° C., 50 μL of S-2222 (at 37° C.) at a specified concentration was added to each well. After mixing, the rate of substramte turnover at 37° C. was measured for 30 minutes at 405 nm (generation of p-nitroaniline). The initial S-2222 concentrations in the assay mixture were 0.45, 0.23, 0.11, 0.056, and 0.028 mM.
# Ki was determined graphically using a Dixon plot, as described in Dixon, Biochem. J. 55:170 (1953).
# human Factor Xa = molecular target: T1, human Factor Xa (Homo sapiens, UniProt P00742); assay: Factor Xa assay (Pefachrome Xa substrate)
# T1 construct: 50 μL 30 nM human Factor Xa
# T1 sequence (P00742 235-488 limits assumed): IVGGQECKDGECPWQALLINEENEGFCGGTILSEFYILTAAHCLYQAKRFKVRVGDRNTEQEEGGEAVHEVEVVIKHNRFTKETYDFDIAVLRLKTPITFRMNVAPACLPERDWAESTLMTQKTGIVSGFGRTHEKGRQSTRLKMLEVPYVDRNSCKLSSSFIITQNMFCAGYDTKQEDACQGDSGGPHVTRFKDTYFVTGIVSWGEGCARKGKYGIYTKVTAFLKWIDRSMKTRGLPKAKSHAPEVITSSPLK
# T1 sequence (P00742 41-179 partner limits assumed): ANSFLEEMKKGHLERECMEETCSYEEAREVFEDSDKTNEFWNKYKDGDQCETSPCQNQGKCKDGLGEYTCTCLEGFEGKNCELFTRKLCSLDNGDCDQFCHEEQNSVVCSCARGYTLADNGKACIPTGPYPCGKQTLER
# Method: (§1) The specificity of the peptide aldehydes (8 through 12) was determined in vitro by measurement of their IC50 against other enzymes involved in hemostasis. A specific concentration of enzyme and its substrate were challenged with varying concentrations of inhibitor. […] Specific assay procedures used are presented below.
# (§2) 96-well microtiter plates were prepared for use in these assays by incubating each well with 300 μL 1% bovine serum albumin (in deionized water) for 30 minutes at 37° C., then washing three times with deionized water.
# Enzyme activity was determined using as substrate, Pefachrome Xa [N-methoxycarbonyl-D-cyclohexylalanyl-L-glycyl-L-arginine p-niroanilide acetate], purchased from Centerchem, Inc. The substrate was made up in deionized water prior to use.
# [2] = molecular target: T2, Activated human Protein C (Homo sapiens, UniProt P04070); assay: Protein C assay (Pefachrome PC substrate)
# T2 construct: from tissue
# T2 sequence (P04070 212-461 limits assumed): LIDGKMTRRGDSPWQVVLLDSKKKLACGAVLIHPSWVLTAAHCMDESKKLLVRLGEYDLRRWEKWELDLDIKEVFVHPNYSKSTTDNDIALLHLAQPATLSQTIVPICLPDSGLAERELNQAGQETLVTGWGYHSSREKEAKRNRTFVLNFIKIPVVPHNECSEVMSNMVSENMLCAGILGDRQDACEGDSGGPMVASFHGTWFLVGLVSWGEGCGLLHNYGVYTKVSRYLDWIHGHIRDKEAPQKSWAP
# T2 sequence (P04070 43-197 partner limits assumed): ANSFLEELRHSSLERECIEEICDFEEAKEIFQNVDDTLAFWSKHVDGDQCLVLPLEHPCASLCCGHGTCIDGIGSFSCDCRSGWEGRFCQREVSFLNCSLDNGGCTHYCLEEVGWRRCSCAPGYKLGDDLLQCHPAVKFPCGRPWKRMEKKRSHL
# Method: as §1, §2
# Enzyme activity was determined using as substrate, Pefachrome PC [δ-carbobenzoloxy-D-lysyl-L-prolyl-L-arginine-p-nitroanilide], purchased from Centerchem, Inc. The substrate was made up in deionized water prior to use. Protac used to activate Protein C was obtained from American Diagnostics.
# [3] = 30 min preincubation, room temperature, tested 0.025-25 μM, Inact. = no inhibition at highest concentration
# [4] = [IC50 for Trypsin/IC50 for other enzyme]×100, lower = more trypsin selective
compound,measurement,setting,value
"CC(C)(C)OC(=O)N[C@@H](CC(=O)O)C(=O)N1CCC[C@H]1C(=O)N[C@H](C=O)CCCNC(=N)N [Compound 9, N-t-butyloxycarbonyl-L-Asp-L-Pro-L-argininal] (Boc-Asp-Pro-Arg-aldehyde)",Ki,[1],0.45 nM
same,IC50,human Factor Xa; [3],> 25 µM
same,Calculated % Selectivity Xa,human Factor Xa; [4],< 0.06%
same,IC50 Protein C,[2]; [3],Inact.
same,Calculated % Selectivity Protein C,[2]; [4],0%

# Source: patent US5534498A, “Trypsin inhibitors” (Corvas International, Inc., priority 1993, dated 1996)
